# Patent publication US8431567B2 (Abbott GmbH & Co. KG, priority 2006, dated 2013)
# Where a name gives a salt, the structure may show the parent alone.
# Target: T1, human vasopressin V1b receptor (Homo sapiens, UniProt P47901)
# T1 construct: expressed in transfected cells; host or cells: CHO-K1 (cell line hV1b_3H2_CHO), membrane preparation
# T1 sequence (P47901 1-424): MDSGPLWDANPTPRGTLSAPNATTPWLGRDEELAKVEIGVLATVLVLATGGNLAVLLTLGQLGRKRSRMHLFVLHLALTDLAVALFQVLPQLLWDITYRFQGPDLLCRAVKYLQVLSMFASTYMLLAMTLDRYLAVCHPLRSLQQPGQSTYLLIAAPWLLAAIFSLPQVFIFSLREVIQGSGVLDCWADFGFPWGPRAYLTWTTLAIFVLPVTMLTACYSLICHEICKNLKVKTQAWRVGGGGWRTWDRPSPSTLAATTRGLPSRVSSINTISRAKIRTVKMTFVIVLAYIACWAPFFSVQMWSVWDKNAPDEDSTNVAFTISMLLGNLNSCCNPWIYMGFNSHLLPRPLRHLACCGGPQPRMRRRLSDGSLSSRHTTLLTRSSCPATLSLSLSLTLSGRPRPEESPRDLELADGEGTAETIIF
# Assay: Vasopressin V1b receptor binding test
# Settings: membranes of CHO-K1 cells, displacement of 1.5 nM 3H-AVP
# Protocol: • Vasopressin V1b Receptor Binding Test: • Substances:
# The test substances were dissolved at a concentration of 10^−2 M in DMSO and diluted further in DMSO to 5×10^−4 M to 5×10^−9 M. These DMSO solutions were diluted 1:10 with test buffer. The concentration of substance was again diluted 1:5 in the test preparation.
# The membrane pellet was homogenized and centrifuged again as described, and then taken up in 50 mM Tris-HCl, pH 7.4, homogenized and, frozen in aliquots, stored at −190° C. in liquid nitrogen.
# The incubation buffer was: 50 mM Tris, 10 mM MgCl2, 0.1% BSA, pH 7.4. […] The nonspecific binding was determined with 1 μM AVP (Bachem #H1780). All determinations were performed in triplicate. After incubation (60 minutes at room temperature), the free radioligand was filtered off by vacuum filtration (Skatron cell harvester 7000) on Whatman GF/B glass-fibre filter mats and the filters were transferred to scintillation vessels. Liquid scintillation measurement was performed in a Tricarb instrument, Model 2000 or 2200CA (Packard). Conversion of the measured cpm to dpm was performed with the aid of a standard quench series.
# The binding parameters were calculated by nonlinear regression in SAS.
# For the compounds according to the invention, the affinities for the human vasopressin receptor V1b were measured according to the above test and the affinity constant (Ki) was determined.
row,Ki,SMILES
1,< 0.05 µM,"CCOc1ccc(OC)cc1C1(N2CCN(c3ccnc(CC)c3)CC2)C(=O)N(S(=O)(=O)c2ccc(OC)cc2OC)c2ccc(C#N)cc21 (racemic) [Example 94, (±)-5-Cyano-1-(2,4-dimethoxy-benzenesulphonyl)-3-(2-ethoxy-5-methoxyphenyl)-3-[4-(2-ethyl-pyridin-4-yl)-piperazin-1-yl]-2,3-dihydro-1H-indol-2-one]"
2,< 0.05 µM,"CCOc1ccc(OC)cc1C1(N2CCCN(c3ccnc(C)c3)CC2)C(=O)N(S(=O)(=O)c2ccc(OC)cc2OC)c2ccc(C#N)cc21 (racemic) [Example 95, (±)-5-Cyano-1-(2,4-dimethoxy-benzenesulphonyl)-3-(2-ethoxy-5-methoxyphenyl)-3-[4-(2-methyl-pyridin-4-yl)-[1.4]diazepan-1-yl]-2,3-dihydro-1H-indol-2-one]"
3,< 0.05 µM,"CCOc1ccc(OC)cc1C1(N2CCN(C3CCNCC3)CC2)C(=O)N(S(=O)(=O)c2ccc(OC)cc2OC)c2ccc(C#N)cc21 (racemic) [Example 100, (±)-5-Cyano-1-(2,4-dimethoxy-benzenesulphonyl)-3-(2-ethoxy-5-methoxyphenyl)-3-(4-piperidin-4-yl-piperazin-1-yl)-2,3-dihydro-1H-indol-2-one hydrochloride]"
4,< 0.05 µM,"CCOc1ccc(C)cc1C1(N2CCN(c3ccncc3)CC2)C(=O)N(S(=O)(=O)c2ccc(OC)cc2OC)c2ccc(C#N)cc21 (racemic) [Example 101, (±)-5-Cyano-1-(2,4-dimethoxy-benzenesulphonyl)-3-(2-ethoxy-5-methylphenyl)-3-(4-pyridin-4-yl-piperazin-1-yl)-2,3-dihydro-1H-indol-2-one]"
5,< 0.05 µM,"CCOc1ccc(OC)cc1C1(N2CCN(C3CCN(C)CC3)CC2)C(=O)N(S(=O)(=O)c2ccc(OC)cc2OC)c2ccc(C#N)cc21 (racemic) [Example 102, (±)-5-Cyano-1-(2,4-dimethoxy-benzenesulphonyl)-3-(2-ethoxy-5-methoxyphenyl)-3-[4-(1-methyl-piperidin-4-yl)-piperazin-1-yl]-2,3-dihydro-1H-indol-2-one]"
6,< 0.05 µM,"CCOc1ccc(CC)cc1C1(N2CCN(c3ccnc(C(C)C)c3)CC2)C(=O)N(S(=O)(=O)c2ccc(OC)cc2OC)c2ccc(C#N)cc21 (racemic) [Example 105, (±)-5-Cyano-1-(2,4-dimethoxy-benzenesulphonyl)-3-(2-ethoxy-5-ethyl-phenyl)-3-[4-(2-isopropyl-pyridin-4-yl)-piperazin-1-yl]-2,3-dihydro-1H-indol-2-one]"
7,< 0.05 µM,"CCOc1ccc(CC)cc1C1(N2CCN(c3ccnc(C)c3)CC2)C(=O)N(S(=O)(=O)c2ccc(OC)cc2OC)c2ccc(C#N)cc21 (racemic) [Example 107, (±)-5-Cyano-1-(2,4-dimethoxy-benzenesulphonyl)-3-(2-ethoxy-5-ethyl-phenyl)-3-[4-(2-methyl-pyridin-4-yl)-piperazin-1-yl]-2,3-dihydro-1H-indol-2-one]"
8,< 0.05 µM,"CCOc1ccc(OC)cc1C1(N2CCN(c3ccncc3)CC2)C(=O)N(S(=O)(=O)c2ccc(OC)cc2OC)c2ccc(C#N)cc21 (single isomer, unassigned; (+)) [Example 96, (+)-5-Cyano-1-(2,4-dimethoxy-benzenesulphonyl)-3-(2-ethoxy-5-methoxyphenyl)-3-(4-pyridin-4-yl-piperazin-1-yl)-2,3-dihydro-1H-indol-2-one]"
9,< 0.05 µM,"CCOc1ccc(OC)cc1C1(N2CCN(c3ccnc(C)c3)CC2)C(=O)N(S(=O)(=O)c2ccc(OC)cc2OC)c2ccc(C#N)cc21 (single isomer, unassigned; (+)) [Example 106, (+)-5-Cyano-1-(2,4-dimethoxy-benzenesulphonyl)-3-(2-ethoxy-5-methoxyphenyl)-3-[4-(2-methyl-pyridin-4-yl)-piperazin-1-yl]-2,3-dihydro-1H-indol-2-one]"
10,0.05 to 0.5 µM,"CCOc1ccccc1C1(N2CCN(c3cccnc3)CC2)C(=O)N(S(=O)(=O)c2ccc(OC)cc2OC)c2ccc(C#N)cc21 (stereo not shown) [Example 2, 5-Cyano-1-(2,4-dimethoxy-benzenesulphonyl)-3-(2-ethoxyphenyl)-3-(4-pyridin-3-yl-piperazin-1-yl)-2,3-dihydro-1H-indol-2-one]"
11,< 0.05 µM,"COc1ccc(S(=O)(=O)N2C(=O)C(c3ccccc3OC)(N3CCN(c4ccncc4)CC3)c3cc(Cl)ccc32)c(OC)c1 (stereo not shown) [Example 3, 5-Chloro-1-(2,4-dimethoxy-benzenesulphonyl)-3-(2-methoxyphenyl)-3-(4-pyridin-4-yl-piperazin-1-yl)-1,3-dihydro-indol-2-one]"
12,0.05 to 0.5 µM,"COc1ccccc1C1(N2CCN(c3ccncc3)CC2)C(=O)N(S(=O)(=O)c2ccc(C#N)cc2)c2ccc(Cl)cc21 (stereo not shown) [Example 4, 4-[5-Chloro-3-(2-methoxyphenyl)-2-oxo-3-(4-pyridin-4-yl-piperazin-1-yl)-2,3-dihydro-indole-1-sulphonyl]-benzonitrile]"
13,< 0.05 µM,"COc1ccccc1C1(N2CCN(c3ccncc3)CC2)C(=O)N(S(=O)(=O)c2ccccc2OC)c2ccc(Cl)cc21 (stereo not shown) [Example 5, 5-Chloro-1-(2-methoxy-benzenesulphonyl)-3-(2-methoxyphenyl)-3-(4-pyridin-4-yl-piperazin-1-yl)-1,3-dihydro-indol-2-one]"
14,< 0.05 µM,"COc1ccccc1C1(N2CCN(c3ccncc3)CC2)C(=O)N(S(=O)(=O)c2ccc(C)cc2OC)c2ccc(Cl)cc21 (stereo not shown) [Example 6, 5-Chloro-1-(2-methoxy-4-methyl-benzenesulphonyl)-3-(2-methoxyphenyl)-3-(4-pyridin-4-yl-piperazin-1-yl)-1,3-dihydro-indol-2-one]"
15,0.05 to 0.5 µM,"CCOc1ccccc1C1(N2CCN(c3ccncc3)CC2)C(=O)N(S(=O)(=O)c2ccc(C#N)cc2)c2ccc(C#N)cc21 (stereo not shown) [Example 7, 5-Cyano-1-(4-cyano-benzenesulphonyl)-3-(2-ethoxyphenyl)-3-(4-pyridin-4-yl-piperazin-1-yl)-2,3-dihydro-1H-indol-2-one]"
16,0.05 to 0.5 µM,"CCOc1ccccc1C1(N2CCN(c3ccncc3)CC2)C(=O)N(S(=O)(=O)c2ccccc2OC)c2ccc(C#N)cc21 (stereo not shown) [Example 8, 5-Cyano-3-(2-ethoxyphenyl)-1-(2-methoxy-benzenesulphonyl)-3-(4-pyridin-4-yl-piperazin-1-yl)-2,3-dihydro-1H-indol-2-one]"
17,0.05 to 0.5 µM,"CCOc1ccccc1C1(N2CCN(c3ccncc3)CC2)C(=O)N(S(=O)(=O)c2ccc(C)cc2OC)c2ccc(C#N)cc21 (stereo not shown) [Example 9, 5-Cyano-3-(2-ethoxyphenyl)-1-(2-methoxy-4-methyl-benzenesulphonyl)-3-(4-pyridin-4-yl-piperazin-1-yl)-2,3-dihydro-1 H-indol-2-one]"
18,< 0.05 µM,"CCOc1ccccc1C1(N2CCN(c3ccncc3)CC2)C(=O)N(S(=O)(=O)c2ccc(OC)cc2OC)c2ccc(C#N)cc21 (stereo not shown) [Example 10, 5-Cyano-1-(2,4-dimethoxy-benzenesulphonyl)-3-(2-ethoxyphenyl)-3-(4-pyridin-4-yl-piperazin-1-yl)-2,3-dihydro-1H-indol-2-one]"
19,0.05 to 0.5 µM,"COc1ccc(S(=O)(=O)N2C(=O)C(c3ccccc3OC)(N3CCN(c4ccncc4)CC3)c3cc(Cl)ccc32)cc1OC (stereo not shown) [Example 12, 5-Chloro-1-(3,4-dimethoxy-benzenesulphonyl)-3-(2-methoxyphenyl)-3-(4-pyridin-4-yl-piperazin-1-yl)-1,3-dihydro-indol-2-one]"
